The test system of this experiment is RMAS-HHD cells. Briefly: T cytotoxic response (CTL) induction by peptide vaccination, 51Cr release specific lysis. Format: in vivo. The protocol: The immunogenicity of the ΔCD20a peptides was evaluated by generating CTL on HLA-A2/DR1 and Knock-Out (KO) transgenic mice for H-2 class I and II.
The mice (4 per group) are immunised with pools of 2 or 3 peptides (2 injections at the base of the tail at an 8-day interval) with: 50 μg of each peptide, 100 μg of helper peptide (20 mers peptide from CMV-specific pp65), the whole co-emulsified with incomplete Freud adjuvant.
Seven days after the second immunisation, the spleens of the mice are removed and the splenocytes are re-stimulated in vitro with 4 μg/ml of each peptide separately. On the fifth day of culture, the respondent populations are tested to determine specific cytotoxicity. The cells, with conclusive cytotoxicity, are re-stimulated in vitro at one-week intervals to obtain specific CTLs.
RMAS-HHD cells are used as targets to study cytotoxicity. These target cells are filled with 10 μg/ml of the peptide under test, or a non-relevant control peptide, at 37° C. for 90 minutes and labelled with 100 μCi of 51Cr for 90 minutes, and washed three times. […] After incubation, 50 μl of supernatant is collected, transferred into specific plates (Lumaplate) and the radioactivity is measured in a γ counter. The specific lysis percentage is calculated using the formula: [(experimental 51 Cr release−spontaneous 51 Cr release)/(maximum 51 Cr release−spontaneous 51 Cr release)]×100.

With “peptide No. 4: ΔCD20-specific peptide overlapping the alternative splicing junction zone, restricted for HLA-A*0201; probably SEQ ID NO: 9 (RMSSLELVI)”, the “mice that developed T cytotoxic response against the peptide” value (immunisation group A, 4 mice per group, 2 injections of 50 μg of each peptide, splenocytes re-stimulated in vitro) was “Three out of 4”. In addition, the “CTLs generated by immunisation killing peptide-charged RMAS-HHD targets” value (targets charged with 10 μg/ml peptide, not cells charged with non-relevant peptide) is “generates CTLs killing RMAS-HHD targets charged with said peptide”.
